According to ChEMBL document CHEMBL6177967, “Semisynthesis and biological evaluation of 17-hydroxybrevianamide N derivatives as anti-inflammatory agents by mediating NF-κB and MAPK signaling pathways” (Eur J Med Chem, 2025):
pIC50: −log10 of the molar value. Values belong to the molecule of their own block, whether it stands above or below them. Activity calls are given as the source filed them. No cut-off for these calls is given here.

How the values were obtained:
RAW264.7 [1] = test: Cytotoxicity against mouse RAW264.7 cells assessed as inhibition of cell growth at 10 uM incubated for 24 hrs by MTT assay; assay type: toxicity, cell-based; details: raw264.7, 24 h
RAW264.7 [2] = test: Cytotoxicity against mouse RAW264.7 cells assessed as inhibition of cell growth at 50 uM incubated for 24 hrs by MTT assay; assay type: toxicity, cell-based; details: raw264.7, 24 h
RAW264.7 [3] = test: Anti-inflammatory activity in LPS-induced mouse RAW264.7 cells assessed as inhibition of NO levels at 2 uM incubated for 24 hrs; assay type: functional, cell-based
RAW264.7 [4] = test: Anti-inflammatory activity in LPS-induced mouse RAW264.7 cells assessed as inhibition of IL-1beta level at 2 uM incubated for 24 hrs by ELISA relative to control; assay type: functional
RAW264.7 [5] = test: Anti-inflammatory activity in LPS-induced mouse RAW264.7 cells assessed as inhibition of IL-6 level at 2 uM incubated for 24 hrs by ELISA relative to control; assay type: functional
RAW264.7 [6] = test: Anti-inflammatory activity in LPS-induced mouse RAW264.7 cells assessed as inhibition of TNF-alpha level at 2 uM incubated for 24 hrs by ELISA relative to control; assay type: functional
RAW264.7 [7] = test: Anti-inflammatory activity in LPS-induced mouse RAW264.7 cells assessed as inhibition of NO levels incubated for 24 hrs; assay type: functional, cell-based; details: RAW264.7, 24 h
RAW264.7 [8] = test: Cytotoxicity against mouse RAW264.7 cells assessed as inhibition of cell growth at 2 uM incubated for 24 hrs by MTT assay; assay type: toxicity, cell-based; details: raw264.7, 24 h

SMILES: CN1C(=O)c2nc3ccccc3c(=O)n2C(Cc2ccccc2OCc2cccc(C(F)(F)F)c2)C1=O (racemic)
Activity (RAW264.7 [1]): Non-toxic

SMILES: CN1C(=O)c2nc3ccccc3c(=O)n2C(Cc2ccccc2OC(=O)c2ccco2)C1=O (racemic)
Activity (RAW264.7 [1]): Non-toxic

SMILES: O=C1c2nc3ccccc3c(=O)n2C(Cc2ccccc2O)C(=O)N1Cc1ccccc1Cl (racemic)
Activity (RAW264.7 [1]): Non-toxic
Activity (RAW264.7 [2]): Non-toxic
Activity (RAW264.7 [3]): Active; Strong Ability Of No Inhibition Observed

pIC50 (RAW264.7 [7]): < 5.10
SMILES: CN1C(=O)c2nc3ccccc3c(=O)n2[C@H](Cc2ccccc2OCC#N)C1=O
inhibition at 2 µM (RAW264.7 [4]): 63.1%
inhibition at 2 µM (RAW264.7 [5]): 31.9%
inhibition (RAW264.7 [6]): inactive
Activity (RAW264.7 [8]): Non-toxic

pIC50 (RAW264.7 [7]): 5.51
SMILES: O=C1c2nc3ccccc3c(=O)n2[C@@H](Cc2ccccc2O)C(=O)N1Cc1cccc(F)c1
inhibition at 2 µM (RAW264.7 [4]): 60.7%
inhibition at 2 µM (RAW264.7 [5]): 21.3%
inhibition (RAW264.7 [6]): inactive
Activity (RAW264.7 [8]): Non-toxic

SMILES: CN1C(=O)c2nc3ccccc3c(=O)n2C(Cc2ccccc2OCc2ccc(Cl)cc2)C1=O (racemic)
Activity (RAW264.7 [1]): Non-toxic
Activity (RAW264.7 [3]): Active

SMILES: COc1ccccc1CC1C(=O)N(C)C(=O)c2nc3ccccc3c(=O)n21 (racemic)
Activity (RAW264.7 [1]): Non-toxic

SMILES: O=C1c2nc3ccccc3c(=O)n2C(Cc2ccccc2O)C(=O)N1Cc1cccc(F)c1 (racemic)
Activity (RAW264.7 [1]): Non-toxic
Activity (RAW264.7 [3]): Active; Strong Ability Of No Inhibition Observed

pIC50 (RAW264.7 [7]): 5.82
SMILES: CN1C(=O)c2nc3ccccc3c(=O)n2[C@@H](Cc2ccccc2OCc2ccccc2Cl)C1=O
inhibition at 2 µM (RAW264.7 [4]): 82.1%
inhibition at 2 µM (RAW264.7 [5]): 21.4%
inhibition (RAW264.7 [6]): inactive
Activity (RAW264.7 [8]): Non-toxic

SMILES: Cc1ccc(COc2ccccc2CC2C(=O)N(C)C(=O)c3nc4ccccc4c(=O)n32)cc1 (racemic)
Activity (RAW264.7 [1]): Non-toxic

SMILES: CN1C(=O)c2nc3ccccc3c(=O)n2C(Cc2ccccc2OC(=O)COCc2ccccc2)C1=O (racemic)
Activity (RAW264.7 [1]): Non-toxic

pIC50 (RAW264.7 [7]): 5.75
SMILES: O=C1c2nc3ccccc3c(=O)n2[C@@H](Cc2ccccc2O)C(=O)N1Cc1ccccc1Cl
inhibition (RAW264.7 [4]): inactive
inhibition at 2 µM (RAW264.7 [5]): 19.3%
inhibition (RAW264.7 [6]): inactive
Activity (RAW264.7 [8]): Non-toxic

SMILES: Cc1cccc(CN2C(=O)c3nc4ccccc4c(=O)n3C(Cc3ccccc3O)C2=O)c1 (racemic)
Activity (RAW264.7 [1]): Non-toxic
Activity (RAW264.7 [3]): Active

SMILES: CC(=O)Oc1ccccc1CC1C(=O)N(C)C(=O)c2nc3ccccc3c(=O)n21 (racemic)
Activity (RAW264.7 [1]): Non-toxic

SMILES: COCOc1ccccc1CC1C(=O)N(Cc2cccc(C(F)(F)F)c2)C(=O)c2nc3ccccc3c(=O)n21 (racemic)
Activity (RAW264.7 [1]): Non-toxic
Activity (RAW264.7 [2]): Toxic

SMILES: COc1ccc(C2(O)c3nc4ccccc4c(=O)n3C(Cc3ccccc3O)C(=O)N2C)cc1 (racemic)
Activity (RAW264.7 [1]): Non-toxic

SMILES: COc1ccccc1CC1C(=O)N(Cc2cccc(C)c2)C(=O)c2nc3ccccc3c(=O)n21 (racemic)
Activity (RAW264.7 [1]): Non-toxic

pIC50 (RAW264.7 [7]): 5.77
SMILES: C=CCOc1ccccc1C[C@@H]1C(=O)N(C)C(=O)c2nc3ccccc3c(=O)n21
inhibition at 2 µM (RAW264.7 [4]): 42.9%
inhibition at 2 µM (RAW264.7 [5]): 36.5%
inhibition (RAW264.7 [6]): inactive
Activity (RAW264.7 [8]): Non-toxic

SMILES: O=C1NC(=O)C(Cc2ccccc2O)n2c1nc1ccccc1c2=O (racemic)
inhibition at 2 µM (RAW264.7 [4]): 33.3%
inhibition at 2 µM (RAW264.7 [5]): 28.8%
Activity (RAW264.7 [1]): Non-toxic
inhibition (RAW264.7 [6]): inactive

pIC50 (RAW264.7 [7]): < 5.10
SMILES: CN1C(=O)c2nc3ccccc3c(=O)n2[C@H](Cc2ccccc2OCc2ccccc2Cl)C1=O
inhibition (RAW264.7 [4]): inactive
inhibition (RAW264.7 [5]): inactive
inhibition (RAW264.7 [6]): inactive
Activity (RAW264.7 [8]): Non-toxic

SMILES: COCOc1ccccc1CC1C(=O)N(Cc2cccc(C)c2)C(=O)c2nc3ccccc3c(=O)n21 (racemic)
Activity (RAW264.7 [1]): Non-toxic

SMILES: COCC(=O)Oc1ccccc1CC1C(=O)N(C)C(=O)c2nc3ccccc3c(=O)n21 (racemic)
Activity (RAW264.7 [1]): Non-toxic

SMILES: CN1C(=O)c2nc3ccccc3c(=O)n2C(Cc2ccccc2OCC#N)C1=O (racemic)
Activity (RAW264.7 [1]): Non-toxic
Activity (RAW264.7 [2]): Non-toxic
Activity (RAW264.7 [3]): Active; Strong Ability Of No Inhibition Observed

SMILES: CN1C(=O)c2nc3ccccc3c(=O)n2C(Cc2ccccc2O)C1=O (racemic)
Activity (RAW264.7 [1]): Non-toxic

SMILES: O=C1c2nc3ccccc3c(=O)n2C(Cc2ccccc2O)C(=O)N1Cc1ccc(Cl)cc1 (racemic)
Activity (RAW264.7 [1]): Non-toxic
Activity (RAW264.7 [2]): Non-toxic

SMILES: Cc1ccc(CN2C(=O)c3nc4ccccc4c(=O)n3C(Cc3ccccc3O)C2=O)cc1 (racemic)
Activity (RAW264.7 [1]): Non-toxic
Activity (RAW264.7 [2]): Non-toxic

pIC50 (RAW264.7 [7]): < 5.10
SMILES: O=C1c2nc3ccccc3c(=O)n2[C@@H](Cc2ccccc2O)C(=O)N1Cc1cccc(Br)c1
inhibition (RAW264.7 [4]): inactive
inhibition (RAW264.7 [5]): inactive
inhibition (RAW264.7 [6]): inactive
Activity (RAW264.7 [8]): Non-toxic

pIC50 (RAW264.7 [7]): 5.86
SMILES: O=C1c2nc3ccccc3c(=O)n2[C@H](Cc2ccccc2O)C(=O)N1Cc1cccc(Br)c1
inhibition at 2 µM (RAW264.7 [4]): 45.2%
inhibition at 2 µM (RAW264.7 [5]): 19.2%
inhibition (RAW264.7 [6]): inactive
Activity (RAW264.7 [8]): Non-toxic

SMILES: CN1C(=O)C(Cc2ccccc2O)n2c(nc3ccccc3c2=O)C1(O)c1ccccc1 (racemic)
Activity (RAW264.7 [1]): Non-toxic
Activity (RAW264.7 [2]): Non-toxic

SMILES: CCOC(=O)COc1ccccc1CC1C(=O)N(C)C(=O)c2nc3ccccc3c(=O)n21 (racemic)
Activity (RAW264.7 [1]): Non-toxic

SMILES: CN1C(=O)c2nc3ccccc3c(=O)n2C(Cc2ccccc2OCc2ccccc2Cl)C1=O (racemic)
Activity (RAW264.7 [1]): Non-toxic
Activity (RAW264.7 [3]): Active; Strong Ability Of No Inhibition Observed

SMILES: CN1C(=O)c2nc3ccccc3c(=O)n2C(Cc2ccccc2OC(=O)c2cccs2)C1=O (racemic)
Activity (RAW264.7 [1]): Non-toxic

pIC50 (RAW264.7 [7]): 5.65
SMILES: O=C1c2nc3ccccc3c(=O)n2[C@H](Cc2ccccc2O)C(=O)N1Cc1cccc(F)c1
inhibition at 2 µM (RAW264.7 [4]): 44%
inhibition at 2 µM (RAW264.7 [5]): 22.9%
inhibition (RAW264.7 [6]): inactive
Activity (RAW264.7 [8]): Non-toxic

SMILES: COCOc1ccccc1CC1C(=O)NC(=O)c2nc3ccccc3c(=O)n21 (racemic)
Activity (RAW264.7 [1]): Non-toxic

pIC50 (RAW264.7 [7]): 5.79
SMILES: CN1C(=O)c2nc3ccccc3c(=O)n2[C@@H](Cc2ccccc2OCC#N)C1=O
inhibition at 2 µM (RAW264.7 [4]): 48.8%
inhibition at 2 µM (RAW264.7 [5]): 31.6%
inhibition (RAW264.7 [6]): inactive
Activity (RAW264.7 [8]): Non-toxic

SMILES: O=C1c2nc3ccccc3c(=O)n2C(Cc2ccccc2O)C(=O)N1Cc1cccc(Br)c1 (racemic)
Activity (RAW264.7 [1]): Non-toxic
Activity (RAW264.7 [3]): Active; Strong Ability Of No Inhibition Observed

SMILES: O=C1c2nc3ccccc3c(=O)n2C(Cc2ccccc2O)C(=O)N1Cc1cccc(C(F)(F)F)c1 (racemic)
Activity (RAW264.7 [1]): Non-toxic

SMILES: COc1ccccc1CC1C(=O)N(Cc2cccc(F)c2)C(=O)c2nc3ccccc3c(=O)n21 (racemic)
Activity (RAW264.7 [1]): Non-toxic

SMILES: C=CCOc1ccccc1CC1C(=O)N(C)C(=O)c2nc3ccccc3c(=O)n21 (racemic)
Activity (RAW264.7 [1]): Non-toxic
Activity (RAW264.7 [2]): Toxic
Activity (RAW264.7 [3]): Active; Strong Ability Of No Inhibition Observed

pIC50 (RAW264.7 [7]): 5.92
SMILES: O=C1c2nc3ccccc3c(=O)n2[C@H](Cc2ccccc2O)C(=O)N1Cc1ccccc1Cl
inhibition at 2 µM (RAW264.7 [4]): 35.7%
inhibition at 2 µM (RAW264.7 [5]): 28.8%
inhibition (RAW264.7 [6]): inactive
Activity (RAW264.7 [8]): Non-toxic
